Test in all cases: Kinase selectivity, scanMAX Kinase assay panel (DiscoverX), % control at 1 uM
Holding throughout (format): binding

Experiment [1] deals with T1, scanMAX Kinase assay panel (Homo sapiens, UniProt P49336).
T1 construct: purchased DiscoverX
The conditions noted are these: CDK8; 1 uM; read-out: Percent Control (%). The gist of the method: (§1)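 Each kinase was first exposed to the test compound at 1 uM in DMSO. Signal was then normalised to positive and negative controls to give % control. Finally, any enzyme showing <35% control was judged inhibited.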

Experiment [2] concerns the target T2, scanMAX Kinase assay panel (Homo sapiens, UniProt Q13164).
T2 construct: purchased DiscoverX
The conditions noted are these: ERK5; 1 uM; read-out: Percent Control (%). The gist of the method:
as §1

For experiment [3], the target named is T3, scanMAX Kinase assay panel (Homo sapiens, UniProt Q9BUB5).
T3 construct: purchased DiscoverX
The conditions noted are these: MKNK1; 1 uM; read-out: Percent Control (%). Summed up:
as §1

For experiment [4], the target named is T4, scanMAX Kinase assay panel (Homo sapiens, UniProt Q7L7X3).
T4 construct: purchased DiscoverX
T4 sequence (Q7L7X3 1-1001): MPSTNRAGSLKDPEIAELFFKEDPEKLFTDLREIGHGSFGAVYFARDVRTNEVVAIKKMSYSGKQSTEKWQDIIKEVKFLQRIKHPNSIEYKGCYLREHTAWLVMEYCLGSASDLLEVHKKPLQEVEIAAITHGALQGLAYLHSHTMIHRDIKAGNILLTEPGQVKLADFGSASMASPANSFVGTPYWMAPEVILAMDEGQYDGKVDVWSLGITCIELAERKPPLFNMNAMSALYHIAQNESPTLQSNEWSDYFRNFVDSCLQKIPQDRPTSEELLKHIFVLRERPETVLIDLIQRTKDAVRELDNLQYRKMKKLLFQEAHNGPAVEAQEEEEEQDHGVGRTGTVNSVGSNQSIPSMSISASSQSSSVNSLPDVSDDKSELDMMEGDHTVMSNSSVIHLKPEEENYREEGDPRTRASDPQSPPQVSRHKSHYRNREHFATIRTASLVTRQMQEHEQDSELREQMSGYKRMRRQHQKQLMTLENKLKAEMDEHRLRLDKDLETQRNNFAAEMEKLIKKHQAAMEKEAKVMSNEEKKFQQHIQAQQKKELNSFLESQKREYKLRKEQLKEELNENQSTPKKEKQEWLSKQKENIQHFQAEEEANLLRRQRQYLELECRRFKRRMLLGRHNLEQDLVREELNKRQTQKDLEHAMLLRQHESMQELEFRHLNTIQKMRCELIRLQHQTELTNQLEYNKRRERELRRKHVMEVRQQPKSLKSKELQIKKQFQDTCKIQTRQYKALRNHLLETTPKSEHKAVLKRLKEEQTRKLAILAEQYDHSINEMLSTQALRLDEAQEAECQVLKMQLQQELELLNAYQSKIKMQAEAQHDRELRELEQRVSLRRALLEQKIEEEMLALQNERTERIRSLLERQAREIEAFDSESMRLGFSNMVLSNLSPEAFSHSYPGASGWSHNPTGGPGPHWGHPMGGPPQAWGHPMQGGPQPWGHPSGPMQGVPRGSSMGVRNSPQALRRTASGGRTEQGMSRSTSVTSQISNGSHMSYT
The conditions noted are these: TAOK1; 1 uM; read-out: Percent Control (%). Summed up: as §1

The target of experiment [5] is T5, scanMAX Kinase assay panel (Homo sapiens, UniProt P04049).
T5 construct: purchased DiscoverX
The note with it: RAF1; 1 uM; read-out: Percent Control (%). The gist of the method: as §1

In experiment [6] the target is T6, scanMAX Kinase assay panel (Homo sapiens, UniProt O00238).
T6 construct: purchased DiscoverX
The note with it: BMPR1B; 1 uM; read-out: Percent Control (%). Summed up:
as §1

In experiment [7] the target is T7, scanMAX Kinase assay panel (Homo sapiens, UniProt Q99640).
T7 construct: purchased DiscoverX
T7 sequence (Q99640 1-499): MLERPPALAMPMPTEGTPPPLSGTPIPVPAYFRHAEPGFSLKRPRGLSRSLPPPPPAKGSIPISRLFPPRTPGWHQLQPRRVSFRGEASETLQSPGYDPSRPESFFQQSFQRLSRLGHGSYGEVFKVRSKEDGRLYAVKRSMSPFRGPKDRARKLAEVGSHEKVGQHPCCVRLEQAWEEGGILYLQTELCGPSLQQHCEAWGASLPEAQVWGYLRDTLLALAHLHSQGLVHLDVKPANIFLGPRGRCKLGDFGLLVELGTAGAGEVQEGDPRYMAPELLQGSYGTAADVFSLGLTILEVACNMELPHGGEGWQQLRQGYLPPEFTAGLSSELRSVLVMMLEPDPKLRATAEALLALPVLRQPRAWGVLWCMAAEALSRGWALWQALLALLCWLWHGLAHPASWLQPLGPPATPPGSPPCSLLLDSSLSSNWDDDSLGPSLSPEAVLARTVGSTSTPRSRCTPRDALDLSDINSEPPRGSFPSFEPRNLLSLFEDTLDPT
The note with it: PKMYT1; 1 uM; read-out: Percent Control (%). The gist of the method:
as §1

T5 sequence (P04049 whole entry): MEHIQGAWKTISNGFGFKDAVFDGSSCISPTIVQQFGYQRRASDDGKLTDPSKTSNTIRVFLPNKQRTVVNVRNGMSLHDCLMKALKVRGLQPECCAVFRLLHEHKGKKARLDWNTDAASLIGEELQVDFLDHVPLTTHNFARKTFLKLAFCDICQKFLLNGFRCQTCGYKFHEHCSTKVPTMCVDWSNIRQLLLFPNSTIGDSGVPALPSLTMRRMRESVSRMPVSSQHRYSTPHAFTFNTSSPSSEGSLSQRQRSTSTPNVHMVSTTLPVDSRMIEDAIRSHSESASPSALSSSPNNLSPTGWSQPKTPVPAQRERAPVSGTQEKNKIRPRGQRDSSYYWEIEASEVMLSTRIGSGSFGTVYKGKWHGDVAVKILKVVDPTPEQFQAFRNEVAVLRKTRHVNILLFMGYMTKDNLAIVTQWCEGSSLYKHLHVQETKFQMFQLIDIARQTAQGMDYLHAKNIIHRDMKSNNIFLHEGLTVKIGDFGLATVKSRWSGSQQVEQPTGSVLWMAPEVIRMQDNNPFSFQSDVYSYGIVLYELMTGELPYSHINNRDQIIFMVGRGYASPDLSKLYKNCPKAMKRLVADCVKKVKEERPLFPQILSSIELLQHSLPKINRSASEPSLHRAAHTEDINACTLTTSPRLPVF
T6 sequence (O00238 14-502): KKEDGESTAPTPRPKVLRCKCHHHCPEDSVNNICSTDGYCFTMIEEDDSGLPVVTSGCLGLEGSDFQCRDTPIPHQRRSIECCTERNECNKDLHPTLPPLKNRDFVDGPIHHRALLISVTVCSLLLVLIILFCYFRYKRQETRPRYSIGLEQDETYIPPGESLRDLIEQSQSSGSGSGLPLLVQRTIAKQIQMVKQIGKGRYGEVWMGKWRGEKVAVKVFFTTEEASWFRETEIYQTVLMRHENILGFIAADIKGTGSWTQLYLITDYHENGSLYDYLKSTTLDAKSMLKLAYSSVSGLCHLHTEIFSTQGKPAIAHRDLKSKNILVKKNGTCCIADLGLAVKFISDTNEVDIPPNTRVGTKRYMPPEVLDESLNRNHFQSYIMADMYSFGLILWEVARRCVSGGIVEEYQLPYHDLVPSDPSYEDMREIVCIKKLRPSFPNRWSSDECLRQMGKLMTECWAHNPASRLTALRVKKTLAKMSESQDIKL
T1 sequence (P49336 whole entry): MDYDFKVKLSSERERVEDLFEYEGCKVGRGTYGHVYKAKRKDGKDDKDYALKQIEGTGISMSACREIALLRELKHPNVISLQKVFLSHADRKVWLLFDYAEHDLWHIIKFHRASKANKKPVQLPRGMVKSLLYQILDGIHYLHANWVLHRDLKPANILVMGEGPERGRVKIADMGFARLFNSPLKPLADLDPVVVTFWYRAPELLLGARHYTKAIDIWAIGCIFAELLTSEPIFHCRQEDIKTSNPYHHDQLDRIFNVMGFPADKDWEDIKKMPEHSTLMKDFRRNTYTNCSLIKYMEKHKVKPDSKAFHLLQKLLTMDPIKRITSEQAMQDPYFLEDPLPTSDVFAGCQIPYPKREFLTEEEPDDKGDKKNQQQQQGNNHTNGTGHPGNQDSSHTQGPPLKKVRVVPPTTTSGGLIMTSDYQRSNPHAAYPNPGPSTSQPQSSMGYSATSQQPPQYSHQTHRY
T3 sequence (Q9BUB5 whole entry): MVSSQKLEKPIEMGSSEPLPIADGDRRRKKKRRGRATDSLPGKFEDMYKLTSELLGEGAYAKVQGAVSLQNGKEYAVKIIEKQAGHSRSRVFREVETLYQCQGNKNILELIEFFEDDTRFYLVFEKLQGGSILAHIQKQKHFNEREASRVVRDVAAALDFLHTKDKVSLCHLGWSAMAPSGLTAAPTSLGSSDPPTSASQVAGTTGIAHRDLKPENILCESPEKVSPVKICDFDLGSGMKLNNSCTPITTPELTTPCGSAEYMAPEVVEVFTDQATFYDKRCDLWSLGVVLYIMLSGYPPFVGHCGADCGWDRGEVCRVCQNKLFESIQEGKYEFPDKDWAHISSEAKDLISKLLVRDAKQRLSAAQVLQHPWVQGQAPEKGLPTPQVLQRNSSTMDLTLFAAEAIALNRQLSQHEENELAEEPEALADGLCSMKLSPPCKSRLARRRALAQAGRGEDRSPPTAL
T2 sequence (Q13164 whole entry): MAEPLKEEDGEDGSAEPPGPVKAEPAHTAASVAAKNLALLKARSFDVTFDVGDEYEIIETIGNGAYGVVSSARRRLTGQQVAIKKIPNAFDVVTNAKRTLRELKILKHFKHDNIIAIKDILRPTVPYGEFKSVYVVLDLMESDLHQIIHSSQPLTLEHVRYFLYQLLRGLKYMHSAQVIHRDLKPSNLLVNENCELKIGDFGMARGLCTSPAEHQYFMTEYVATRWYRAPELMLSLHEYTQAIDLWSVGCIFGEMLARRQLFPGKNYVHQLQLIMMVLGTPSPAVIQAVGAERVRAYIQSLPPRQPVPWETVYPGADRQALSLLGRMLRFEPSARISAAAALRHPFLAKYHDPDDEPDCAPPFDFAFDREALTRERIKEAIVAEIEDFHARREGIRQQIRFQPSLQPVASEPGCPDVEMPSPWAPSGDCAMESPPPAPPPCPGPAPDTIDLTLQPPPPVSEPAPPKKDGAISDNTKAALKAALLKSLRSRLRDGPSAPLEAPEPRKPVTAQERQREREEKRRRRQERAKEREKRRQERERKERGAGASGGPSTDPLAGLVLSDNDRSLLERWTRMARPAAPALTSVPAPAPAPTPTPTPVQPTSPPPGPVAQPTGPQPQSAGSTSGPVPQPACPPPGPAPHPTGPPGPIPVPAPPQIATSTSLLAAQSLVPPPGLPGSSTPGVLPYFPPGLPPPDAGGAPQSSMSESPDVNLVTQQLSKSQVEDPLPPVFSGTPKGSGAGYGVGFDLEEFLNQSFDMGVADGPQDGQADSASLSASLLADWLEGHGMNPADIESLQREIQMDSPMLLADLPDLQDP

As to `Cc1ccc(C(=O)Nc2ccc(CN3CCN(C)CC3)c(C(F)(F)F)c2)cc1C#Cc1cnc2c(Nc3cnn(C)c3)cccn12` [Example 1, 4-methyl-3-((8-((1-methyl-1H-pyrazol-4-yl)amino)imidazo[1,2-a]pyridin-3-yl)ethynyl)-N-(4-((4-methylpiperazin-1-yl)methyl)-3-(trifluoromethyl)phenyl)benzamide], the remaining binding at 1 µM in experiment [1] turned out to be 4%; in experiment [2] it was 78%; in experiment [3] it was 47%; in experiment [4] it was 51%; in experiment [5] it was 11%; in experiment [6], 99%. Besides, in experiment [7], the remaining binding at 1 µM is 93%.

As for `Cc1cn(-c2cc(NC(=O)c3ccc(C)c(C#Cc4cnc5c(Nc6cnn(C)c6)cccn45)c3)cc(C(F)(F)F)c2)cn1` [Example 12, 4-methyl-N-(3-(4-methyl-1H-imidazol-1-yl)-5-(trifluoromethyl)phenyl)-3-((8-((1-methyl-1H-pyrazol-4-yl)amino)imidazo[1,2-a]pyridin-3-yl)ethynyl)benzamide], the remaining binding at 1 µM in experiment [1] was found to be 31%; in experiment [2] it was 90%; in experiment [3] it was 100%; in experiment [4], 100%; in experiment [5], 42%; in experiment [6] it was 100%. For the same compound, in experiment [7], the remaining binding at 1 µM is 98%.

Consider `Cc1ccc(NC(=O)C2(C(=O)Nc3ccc(F)cc3)CC2)cc1C#Cc1cnc2c(Nc3cnn(C(C)C)c3)cccn12` [Example 78], for which the remaining binding at 1 µM in experiment [1] came out at 100%; in experiment [2], 100%; in experiment [3], 100%; in experiment [4] it was 89%; in experiment [5] it was 100%; in experiment [6], 100%. The remaining binding at 1 µM in experiment [7] was determined as 90%.

The record behind these values is patent US10870647B2, “Imidazopyridine derivative, method for preparing same, and pharmaceutical composition containing same as active ingredient for preventing or treating cancer” (DAEGU-GYEONGBUK MEDICAL INNOVATION FOUNDATION, priority 2016, dated 2020).
